Measurements as given in patent US20130252988A1, “COMPOSITIONS AND METHODS FOR TREATING MYELOFIBROSIS” (TARGEGEN, INC., priority 2010, published 2013).
Entries after “also recorded” stand apart in the source; their conditions may differ. Structures can show the parent of a compound that is named as a salt. Where two headings read alike, the source gives them in different places.

Key:
Assay type in all cases: in vivo, human
[1] = Plasma pharmacokinetics of TG101348, non-compartmental analysis; settings: for AUC(0-t) / Cmax / half-life / Tmax: human, plasma; for Tmax: median
Experimental: The concentration-time curves of TG101348 in plasma were evaluated by a non-compartmental analysis (with the use of WinNonlin® software, version 5.2).

platelet count = assay: Thrombocytosis: platelet count; settings: for Subjects who achieved a normal platelet count: after 6 cycles; for Subjects with a normal platelet count: following 12 cycles
bone marrow = assay: Bone marrow histology (cellularity, fibrosis)
Experimental: (§1) Responses were measured every 4 weeks per International Working Group for MPN Research and Treatment (IWG-MRT) criteria (Tefferi A et al., Blood 108:1497-1503, 2006). Assessment of bone marrow histology was performed at baseline and every 24 weeks of therapy. Changes in JAK2V617F allele burden in the granulocyte fraction of peripheral blood were measured as previously described (Kittur J et al., Cancer 109:2279-2284, 2007); the assessments were at baseline and every 4 weeks during the first 6 cycles, and every 6th cycle of therapy in the extension study.

[2] = Body weight during study treatment
JAK2V617F allele burden = JAK2V617F allele burden in the granulocyte fraction of peripheral blood
Experimental: as §1

[3] = oral, 30 mg/day (n = 3), multiple daily doses, Cycle 1, Day 28, mean
[4] = oral, 60 mg/day (n = 3), multiple daily doses, Cycle 1, Day 28, mean
[5] = oral, 120 mg/day (n = 3), multiple daily doses, Cycle 1, Day 28, mean
[6] = oral, 240 mg/day (n = 3), multiple daily doses, Cycle 1, Day 28, mean
[7] = oral, 360 mg/day (n = 3), multiple daily doses, Cycle 1, Day 28, mean
[8] = oral, 520 mg/day (n = 3), multiple daily doses, Cycle 1, Day 28, mean
[9] = oral, 680 mg/day (n = 27), multiple daily doses, Cycle 1, Day 28, mean
[10] = oral, 800 mg/day (n = 5), multiple daily doses, Cycle 1, Day 28, mean
[11] = over a 27-fold increase in dose

SMILES: Cc1cnc(Nc2ccc(OCCN3CCCC3)cc2)nc1Nc1cccc(S(=O)(=O)NC(C)(C)C)c1 [TG101348, N-tert-butyl-3-[(5-methyl-2-{[4-(2-pyrrolidin-1-ylethoxy)phenyl]amino}pyrimidin-4-yl)amino]benzenesulfonamide dihydrochloride monohydrate]
- Dose proportionality of plasma PK parameters (Cmax and AUC0-t) ([1]; 30 to 800 mg/day): greater than dose-proportional increases
- AUC(0-t) [1, 3]: 807 ng·h/mL
- Cmax [1, 3]: 81.8 ng/mL
- half-life ([1]; oral, 30 mg/day (n = 3), multiple daily doses, Cycle 1, Day 28, mean, read-out: T1/2 (terminal half-life) (converted)): 20.9 h
- Tmax ([1]; oral, 30 mg/day (n = 3), multiple daily doses, Cycle 1, Day 28): 2 h
- AUC(0-t) [1, 4]: 2430 ng·h/mL
- Cmax [1, 4]: 257 ng/mL
- half-life ([1]; oral, 60 mg/day (n = 3), multiple daily doses, Cycle 1, Day 28, mean, read-out: T1/2 (terminal half-life) (converted)): 15.7 h
- Tmax ([1]; oral, 60 mg/day (n = 3), multiple daily doses, Cycle 1, Day 28): 1 h
- AUC(0-t) [1, 5]: 7650 ng·h/mL
- Cmax [1, 5]: 557 ng/mL
- half-life ([1]; oral, 120 mg/day (n = 3), multiple daily doses, Cycle 1, Day 28, mean, read-out: T1/2 (terminal half-life) (converted)): 24.4 h
- Tmax ([1]; oral, 120 mg/day (n = 3), multiple daily doses, Cycle 1, Day 28): 2 h
- AUC(0-t) [1, 6]: 26200 ng·h/mL
- Cmax [1, 6]: 1800 ng/mL
- half-life ([1]; oral, 240 mg/day (n = 3), multiple daily doses, Cycle 1, Day 28, mean, read-out: T1/2 (terminal half-life) (converted)): 20.8 h
- Tmax ([1]; oral, 240 mg/day (n = 3), multiple daily doses, Cycle 1, Day 28): 2 h
- AUC(0-t) [1, 7]: 23900 ng·h/mL
- Cmax [1, 7]: 1720 ng/mL
- half-life ([1]; oral, 360 mg/day (n = 3), multiple daily doses, Cycle 1, Day 28, mean, read-out: T1/2 (terminal half-life) (converted)): 21.4 h
- Tmax ([1]; oral, 360 mg/day (n = 3), multiple daily doses, Cycle 1, Day 28): 2 h
- AUC(0-t) [1, 8]: 61700 ng·h/mL
- Cmax [1, 8]: 3890 ng/mL
- half-life ([1]; oral, 520 mg/day (n = 3), multiple daily doses, Cycle 1, Day 28, mean, read-out: T1/2 (terminal half-life) (converted)): 20.9 h
- Tmax ([1]; oral, 520 mg/day (n = 3), multiple daily doses, Cycle 1, Day 28): 4 h
- AUC(0-t) [1, 9]: 55100 ng·h/mL
- Cmax [1, 9]: 3060 ng/mL
- half-life ([1]; oral, 680 mg/day (n = 27), multiple daily doses, Cycle 1, Day 28, mean, read-out: T1/2 (terminal half-life) (converted)): 33.7 h
- Tmax ([1]; oral, 680 mg/day (n = 27), multiple daily doses, Cycle 1, Day 28): 4 h
- AUC(0-t) [1, 10]: 70800 ng·h/mL
- Cmax [1, 10]: 4380 ng/mL
- half-life ([1]; oral, 800 mg/day (n = 5), multiple daily doses, Cycle 1, Day 28, mean, read-out: T1/2 (terminal half-life) (converted)): 24 h
- Tmax ([1]; oral, 800 mg/day (n = 5), multiple daily doses, Cycle 1, Day 28): 2.25 h
- half-life ([1]; oral, across all doses, read-out: Terminal phase half-life at steady state): 16 to 34 h
- Time after dosing at which peak plasma concentration was achieved ([1]; oral, once daily): 1 to 4 h
- Increase in mean steady-state AUC0-t [1, 11]: ~88 fold
- Increase in mean steady-state Cmax [1, 11]: approximately 54 fold
- Subjects who achieved a normal platelet count (platelet count; MTD cohort (7 with baseline thrombocytosis)): 100%
- Subjects who achieved a normal platelet count (platelet count; across doses (10 with baseline thrombocytosis)): 90%
- Effect on platelet counts in thrombocytosis (platelet count; baseline platelet count >450×10^9/L): able to reduce platelet counts
- Subjects with a normal platelet count (platelet count; MTD cohort, all of 6): 6 subjects
- Subjects with a normal platelet count (platelet count; across doses (7 of 8)): 88%
- Bone marrow fibrosis grade (bone marrow; after 18 cycles, person, V617F negative PMF, 3+ at baseline, starting dose 240, follow-up 440 mg/day): 0
- Bone marrow cellularity (bone marrow; after 18 cycles, person, V617F negative PMF, 60% at baseline, starting dose 30, follow-up 520 mg/day): 5-10%
- BM cellularity and reticulin fibrosis with extended treatment (bone marrow; preliminary observations): reduction in BM cellularity and reticulinfibrosis
- Weight, change from baseline, median ([2]; 6 Cycles, MTD Cohort (n = 28)): 0.6 kg
- Weight, median ([2]; 6 Cycles, MTD Cohort (n = 28)): 77.7 kg
- Weight, change from baseline, median ([2]; 6 Cycles, Overall (n = 43)): 0.4 kg
- Weight, median ([2]; 6 Cycles, Overall (n = 43)): 76.9 kg
- Weight, change from baseline, median ([2]; 12 Cycles, MTD Cohort (n = 26)): 0.35 kg
- Weight, median ([2]; 12 Cycles, MTD Cohort (n = 26)): 76.5 kg
- Weight, change from baseline, median ([2]; 12 Cycles, Overall (n = 36)): 0.7 kg
- Weight, median ([2]; 12 Cycles, Overall (n = 36)): 76.1 kg
- Median body weight relative to baseline ([2]; end of 6 and 12 cycles, overall and MTD cohorts): stable relative to baseline
- Subjects exhibiting no change in allele burden (JAK2V617F allele burden; 12 cycles, 100% allele burden at baseline): 2
- Median JAK2V617F allele burden (JAK2V617F allele burden; 23 subjects with baseline >20% (baseline median 60%), after 6 cycles, range 4%-100%): 31%
- Median JAK2V617F allele burden (JAK2V617F allele burden; 23 subjects with baseline >20% (baseline median 60%), after 12 cycles, range 7%-100%): 32%
- Patients with =50% reduction in VF allele burden (JAK2V617F allele burden; 48 evaluable VF-positive patients (21 patients), last available follow-up): 44%
- Median decrease in granulocyte mutant allele burden (JAK2V617F allele burden; 48 evaluable VF-positive patients, last available follow-up): 48%
- Median JAK2V617F allele burden (JAK2V617F allele burden; all mutation-positive subjects (baseline median 20%), after 6 cycles, range 0%-100%): 17%
- Median JAK2V617F allele burden (JAK2V617F allele burden; all mutation-positive subjects (baseline median 20%), after 12 cycles, range 0%-100%): 19%
- Change in JAK2V617F allele burden versus pre-study baseline (JAK2V617F allele burden; all mutation-positive subjects (n=51), after 6 cycles (p=0.04) and 12 cycles (p=0.01)): significant decrease
- Subjects with =50% decrease in JAK2V617F (JAK2V617F allele burden; baseline >20%, 12 cycles, 7 subjects): 39%
- Subjects exhibiting an increase in allele burden (JAK2V617F allele burden; baseline >20%, 12 cycles, Three subjects (7%, 18%, and 22%)): 17%
- Median decrease in JAK2V617F allele burden (JAK2V617F allele burden; baseline >20%, 18 subjects who completed 12 cycles, range 29% to 82%): 50%
- Subjects exhibiting an increase in JAK2V617F allele burden (JAK2V617F allele burden; baseline >20%, after 6 cycles, 4 subjects (18%, 21%, 30%, and 58%)): 20%
- Subjects with =50% decrease in JAK2V617F allele burden (JAK2V617F allele burden; baseline >20%, after 6 cycles, 9 subjects): 45%
- Subjects exhibiting a decrease in JAK2V617F allele burden (JAK2V617F allele burden; baseline >20%, after 6 cycles, 16 of 20 subjects): 80%
- Median decrease in JAK2V617F allele burden (JAK2V617F allele burden; baseline >20%, after 6 cycles, 16 subjects, range 6% to 96%): 61%
- Patients with =50% reduction in VF allele burden (JAK2V617F allele burden; group who started treatment at =680 mg): 48%
- Change in JAK2V617F allele burden versus pre-study baseline (JAK2V617F allele burden; subgroup with baseline allele burden >20% (n=23), after 6 cycles (p=0.002) and 12 cycles (p=0.002), dihydrochloride monohydrate): significant and even more pronounced decrease; also recorded: significant decrease
- Subjects with decreased JAK2 V617F allele burden (JAK2V617F allele burden; subjects with baseline >20% (N=22), FIG. 6): 59%
